# ChEMBL document CHEMBL5052853, “Isoxazole derivatives targeting tacc3 as anticancer agents” (2021)
# Activity calls are given as the source filed them. The calls are words filed in the database; no cut-off is given here.
# Key:
# Format in all cases: functional, cell-based
# JIMT-1 [1] = test: Antiproliferative activity against human JIMT-1 cells after 72 hrs by SRB assay; conditions: JIMT-1, 72 h
# RT-112 = test: Antiproliferative activity against human RT-112 cells after 3 days by SRB assay; conditions: RT-112, 72 h
# JIMT-1 [2] = test: Induction of DNA damage in human JIMT-1 cells at high concentration assessed as change in p-H2AX levels and measured by Western blot analysis
# JIMT-1 [3] = test: Induction of mitotic arrest in human JIMT-1 cells at high concentration assessed as change in p-histone H3 levels and measured by Western blot analysis
# RT-4 = test: Antiproliferative activity against human RT-4 cells after 3 days by SRB assay; conditions: RT-4, 72 h
# JIMT-1 [4] = test: Induction of apoptosis in human JIMT-1 cells at high concentration assessed as change in cleaved PARP levels and measured by Western blot analysis
# MCF-12A = test: Antiproliferative activity against human MCF-12A cells
# JIMT-1 [5] = test: Induction of apoptosis in human JIMT-1 cells at high concentration assessed as change in cleaved caspase-3 levels and measured by Western blot analysis
Structure (SMILES),IC50 (JIMT-1 [1]) [nM],further results
COc1cccc(-c2cc(Nc3ccnc(N4CCOCC4)n3)on2)c1,3440,–
COc1ccc(-c2cc(Nc3ccnc(N4CCS(=O)(=O)CC4)n3)on2)cc1,> 10000,–
c1cc(Nc2cc(-c3ccc4c(c3)OCO4)no2)nc(N2CCOCC2)n1,870,–
CC(C)CNc1ccnc(NCc2csc(-c3ccccc3)n2)n1,–,IC50 (RT-112): 8710 nM; Activity (JIMT-1 [2]): Active; Activity (JIMT-1 [3]): Active; IC50 (RT-4): 7070 nM; Activity (JIMT-1 [4]): Active; IC50 (MCF-12A): > 10000 nM; Activity (JIMT-1 [5]): Active
c1ccc(COc2ccc(-c3cc(Nc4ccnc(N5CCOCC5)n4)on3)cc2)cc1,> 10000,–
Fc1ccc(-c2cc(Nc3ccnc(N4CCOCC4)n3)on2)cc1,> 10000,–
COc1ccc(-c2cc(Nc3ccnc(N4CCC(C(F)(F)F)CC4)n3)on2)cc1,56,–
CCOC(=O)C1CCN(c2nccc(Nc3cc(-c4ccc(OC)cc4)no3)n2)CC1,> 10000,–
COc1ccc(-c2cc(Nc3cc(C)nc(N4CCC(F)CC4)n3)on2)cc1,1000,–
COc1ccc(-c2cc(Nc3ccnc(N4CCC(F)(F)CC4)n3)on2)cc1,370,–
CCCOc1ccc(-c2cc(Nc3ccnc(N4CCOCC4)n3)on2)cc1,> 10000,–
FC(F)Oc1ccc(-c2cc(Nc3ccnc(N4CCOCC4)n3)on2)cc1,4230,–
CCOc1ccc(-c2cc(Nc3ccnc(N4CCOCC4)n3)on2)cc1,810,–
COc1ccc(-c2cc(Nc3ccnc(N4CCNCC4)n3)on2)cc1,> 10000,–
COc1ccc(-c2cc(Nc3ccnc(N4CCC(F)CC4)n3)on2)cc1F,145,–
COc1ccc(-c2cc(N(C)c3ccnc(N4CCOCC4)n3)on2)cc1,160,–
CC(F)(F)c1ccc(-c2cc(Nc3ccnc(N4CCOCC4)n3)on2)cc1,> 10000,–
COc1ccc(-c2cc(Nc3nc(N4CCC(F)CC4)ncc3F)on2)cc1,540,–
CC(C)c1ccc(-c2cc(Nc3ccnc(N4CCOCC4)n3)on2)cc1,3610,–
COc1ccc(-c2cc(Nc3ccnc(N4CCC(C(=O)O)CC4)n3)on2)cc1,> 10000,–
COc1ccc(-c2cc(Nc3ccnc(N4C5CCC4COC5)n3)on2)cc1,160,–
CCc1ccc(-c2cc(Nc3ccnc(N4CCOCC4)n3)on2)cc1,259,–
COc1ccc(-c2cc(Nc3ccnc(N4CCC(CCO)CC4)n3)on2)cc1,3970,–
COc1ccccc1-c1cc(Nc2ccnc(N3CCOCC3)n2)on1,8270,–
FC(F)(F)c1ccc(-c2cc(Nc3ccnc(N4CCOCC4)n3)on2)cc1,> 10000,–
Oc1ccc(-c2cc(Nc3ccnc(N4CCOCC4)n3)on2)cc1,> 10000,–

Structure (SMILES),IC50 (JIMT-1 [1]) [nM],further results
CN(C)c1ccc(-c2cc(Nc3ccnc(N4CCC(F)CC4)n3)on2)cc1,157,–
COc1ccc(-c2cc(Nc3ccnc(N4CCN(CCO)CC4)n3)on2)cc1,> 10000,–
Cc1ccc(-c2cc(Nc3ccnc(N4CCOCC4)n3)on2)cc1,640,–
COc1ccc(-c2cc(Nc3ccnc(N4CCSCC4)n3)on2)cc1,113,–
COc1ccc(-c2cc(Nc3ccnc(N4CCC(C)CC4)n3)on2)cc1,204,–
COc1ccc(-c2cc(Nc3ccnc(N4CCCC4)n3)on2)cc1,105,–
COc1ccc(-c2cc(Nc3ccnc(N4CCOCC4)n3)on2)cn1,7300,–
COc1ccc(-c2cc(Nc3ccnc(N4C[C@@H]5C[C@H]4CO5)n3)on2)cc1,2020,–
COc1ccc(-c2cc(Nc3ccnc(N4CC5CCC(C4)O5)n3)on2)cc1,3090,–
Clc1ccc(-c2cc(Nc3ccnc(N4CCOCC4)n3)on2)cc1,> 10000,–
CN(C)c1ccc(-c2cc(Nc3ccnc(N4CCOCC4)n3)on2)cc1,120,–
COc1ccc(-c2cc(Nc3ccnc(N4CCOCC4)n3)on2)cc1F,13,–
FC(F)(F)Oc1ccc(-c2cc(Nc3ccnc(N4CCOCC4)n3)on2)cc1,> 10000,–
COc1ccc(-c2cc(Nc3ccnc(N4CCOCC4)n3)on2)cc1OC,730,–
CCN(Cc1ccncc1)Cc1c(O)ccc2c(-c3cc4ccccc4oc3=O)cc(=O)oc12,–,IC50 (RT-112): 1200 nM; Activity (JIMT-1 [2]): Active; Activity (JIMT-1 [3]): Active; IC50 (RT-4): 5250 nM; Activity (JIMT-1 [4]): Active; IC50 (MCF-12A): > 10000 nM; Activity (JIMT-1 [5]): Active
CSc1ccc(-c2cc(Nc3ccnc(N4CCOCC4)n3)on2)cc1,30,–
COc1ccc(-c2cc(Nc3ccnc(N4C5CCC4COC5)n3)on2)cc1F,53,–
COc1ccc(-c2cc(Nc3ccnc(N4CCC(F)CC4)n3)on2)cc1,130,–
COc1ccc(-c2cc(Nc3ccnc(N4C[C@H]5C[C@@H]4CO5)n3)on2)cc1,480,–
COc1ccc(-c2cc(Nc3ccnc(N4CCOCC4)n3)on2)cc1Cl,480,–
COc1ccc(-c2cc(Nc3ccnc(N4CCCC4)n3)on2)cc1F,49,–
c1ccc(-c2cc(Nc3ccnc(N4CCOCC4)n3)on2)cc1,> 10000,–
COc1ccc(-c2cc(Nc3ccnc(N4C[C@@H](C)O[C@@H](C)C4)n3)on2)cc1,230,–
COc1ccc(-c2cc(Nc3ccnc(N4CCN(C)CC4)n3)on2)cc1,1560,–
COc1ccc(-c2cc(Nc3ccnc(N4CCCCC4)n3)on2)cc1,116,–
COc1ccc(-c2cc(Nc3ccnc(N4CCC(NN5CCOCC5)CC4)n3)on2)cc1,800,–
